# Data reported in US20230310393A1 (Tianjin Creatron Biotechnology Co., Ltd., priority 2020, published 2023).
# Like-named read-outs stand apart in the source and are kept apart here.
# Legend:
# [1] = Solubility of sorafenib in different organic solvents; assay type: physicochemical; conditions: for solubility at 30 min / solubility at 24 h: organic solvent, 37 °C, organic solvent or mixture, thermodynamic from solid
# [2] = Stability of sorafenib in different organic solvents (related substances by HPLC); assay type: physicochemical
# [3] = Solubility test of solid dispersions (pH 1.0 hydrochloric acid, pH 6.8 phosphate buffer, FaSSGF, FaSSIF); assay type: physicochemical; conditions: main drug:carrier 1:3; for Solubility: pH 1.0 hydrochloric acid solution, 37° C., listed as SLFN
# Experimental: An appropriate amount of solid dispersion (SD) was added to a pH 1.0 hydrochloric acid solution and a pH 6.8 phosphate buffer solution, while keeping the SD in excess, and shaken at 37° C. in a shaker at 300 rpm.
# [4] = Stability of solid dispersions at high temperature of 60° C. (related substances by HPLC); assay type: physicochemical
# Experimental: The SD prepared above was sealed in an aluminum foil bag, placed in a high temperature of 60° C. for investigation for 10 days and 30 days, and related substances were detected by HPLC method.
# [5] = healthy volunteer, oral 100 mg 14C radiolabeled sorafenib; cited from earlier work
# [6] = renal cell carcinoma patients; cited from earlier work
# [7] = cited from earlier work
# [8] = acetone-ethanol 1:2, standing 30 min
# [9] = acetone-ethanol 1:2, standing 24 h
# [10] = dichloromethane-acetone 3:1, standing 30 min
# [11] = dichloromethane-acetone 3:1, standing 24 h
# [12] = methanol-dichloromethane 1:2, standing 30 min
# [13] = methanol-dichloromethane 1:2, standing 24 h
# [14] = methanol-dichloromethane 1:3, standing 30 min
# [15] = methanol-dichloromethane 1:3, standing 24 h
# [16] = methanol-dichloromethane 1:4, standing 30 min
# [17] = methanol-dichloromethane 1:4, standing 24 h
smiles,measurement,setting,value
"CNC(=O)c1cc(Oc2ccc(NC(=O)Nc3ccc(Cl)c(C(F)(F)F)c3)cc2)ccn1 [sorafenib, 4-{4-[3-(4-chloro-3-trifluoromethyl-phenyl)acylurea]-phenoxy}-pyridine-2-carboxylic acid methylamine]",Solubility,"[1]; acetone-ethanol 1:2, 30 min, 37° C.",18.51 mg/mL
same,Solubility,"[1]; acetone-ethanol 1:2, 24 h, 37° C.",18.48 mg/mL
same,Solubility (visual inspection),"[1]; acetone-ethanol 1:3 and 1:5, 30 min",Less API dissolved by visual
same,Solubility (visual inspection),"[1]; dichloromethane-acetone 1:1 and 2:1, 30 min",Less API dissolved by visual
same,Solubility,"[1]; methanol-dichloromethane 1:1, 30 min, 37° C.",14.28 mg/mL
same,solubility at 30 min,"[1]; dichloromethane-acetone 3:1, 30 min, 37° C.",3.6 mg/mL
same,solubility at 24 h,"[1]; dichloromethane-acetone 3:1, 24 h, 37° C.",4.04 mg/mL
same,solubility at 30 min,"[1]; isopropanol, 30 min",2.91 mg/mL
same,solubility at 24 h,"[1]; isopropanol, 24 h",2.81 mg/mL
same,solubility at 30 min,"[1]; methanol-dichloromethane 1:0.5 (v/v), 30 min, 37° C.",8.34 mg/mL
same,solubility at 24 h,"[1]; methanol-dichloromethane 1:0.5 (v/v), 24 h, 37° C.",19.2 mg/mL
same,solubility at 24 h,"[1]; methanol-dichloromethane 1:1, 24 h, 37° C.",24.2 mg/mL
same,solubility at 30 min,"[1]; methanol-dichloromethane 1:2, 30 min, 37° C.",20.9 mg/mL
same,solubility at 24 h,"[1]; methanol-dichloromethane 1:2, 24 h, 37° C.",36.2 mg/mL
same,solubility at 30 min,"[1]; methanol-dichloromethane 1:3, 30 min, 37° C.",36.4 mg/mL
same,solubility at 24 h,"[1]; methanol-dichloromethane 1:3, 24 h, 37° C.",36.4 mg/mL
same,solubility at 30 min,"[1]; methanol-dichloromethane 1:4, 30 min, 37° C.",31.3 mg/mL
same,solubility at 24 h,"[1]; methanol-dichloromethane 1:4, 24 h, 37° C.",36.3 mg/mL
same,Related substances RRT 0.08,"[2]; API, no solvent",0.008%
same,Related substances RRT 0.30,"[2]; API, no solvent",0.029%
same,Related substances RRT 0.40,"[2]; API, no solvent",0.006%
same,Related substances RRT 0.55,"[2]; API, no solvent",0.028%
same,Related substances RRT 0.92,"[2]; API, no solvent",0.054%
same,Related substances RRT 1.00,"[2]; API, no solvent",99.864%
same,Related substances RRT 0.05,[2]; [8],4.314%
same,Related substances RRT 0.08,[2]; [8],0.011%
same,Related substances RRT 0.30,[2]; [8],0.029%
same,Related substances RRT 0.40,[2]; [8],0.008%
same,Related substances RRT 0.55,[2]; [8],0.025%
same,Related substances RRT 0.92,[2]; [8],0.047%
same,Related substances RRT 1.00,[2]; [8],95.562%
same,Related substances RRT 0.05,[2]; [9],3.946%
same,Related substances RRT 0.08,[2]; [9],0.010%
same,Related substances RRT 0.30,[2]; [9],0.033%
same,Related substances RRT 0.40,[2]; [9],0.007%
same,Related substances RRT 0.55,[2]; [9],0.020%
same,Related substances RRT 0.92,[2]; [9],0.035%
same,Related substances RRT 1.00,[2]; [9],95.893%
same,Related substances RRT 0.05,[2]; [10],12.979%
same,Related substances RRT 0.08,[2]; [10],2.491%
same,Related substances RRT 0.30,[2]; [10],0.020%
same,Related substances RRT 0.35,[2]; [10],0.282%
same,Related substances RRT 0.92,[2]; [10],0.039%
same,Related substances RRT 1.00,[2]; [10],84.196%
same,Related substances RRT 0.05,[2]; [11],14.191%
same,Related substances RRT 1.00,[2]; [11],85.157%
same,Related substances RRT 0.03,"[2]; isopropanol, standing 30 min",0.161%
same,Related substances RRT 1.00,"[2]; isopropanol, standing 30 min",99.839%
same,Related substances RRT 1.00,"[2]; isopropanol, standing 24 h",99.365%
same,Related substances RRT 0.08,[2]; [12],0.011%
same,Related substances RRT 0.30,[2]; [12],0.030%
same,Related substances RRT 0.40,[2]; [12],0.008%
same,Related substances RRT 0.55,[2]; [12],0.031%
same,Related substances RRT 0.92,[2]; [12],0.037%
same,Related substances RRT 1.00,[2]; [12],99.870%
same,Related substances RRT 0.08,[2]; [13],0.013%
same,Related substances RRT 0.30,[2]; [13],0.035%
same,Related substances RRT 0.40,[2]; [13],0.009%
same,Related substances RRT 0.55,[2]; [13],0.028%
same,Related substances RRT 0.92,[2]; [13],0.049%
same,Related substances RRT 1.00,[2]; [13],99.853%
same,Related substances RRT 0.08,[2]; [14],0.015%
same,Related substances RRT 0.30,[2]; [14],0.029%
same,Related substances RRT 0.40,[2]; [14],0.006%
same,Related substances RRT 0.55,[2]; [14],0.026%
same,Related substances RRT 0.92,[2]; [14],0.050%
same,Related substances RRT 1.00,[2]; [14],99.861%
same,Related substances RRT 0.08,[2]; [15],0.012%
same,Related substances RRT 0.30,[2]; [15],0.035%
same,Related substances RRT 0.40,[2]; [15],0.009%
same,Related substances RRT 0.55,[2]; [15],0.025%
same,Related substances RRT 0.92,[2]; [15],0.037%
same,Related substances RRT 1.00,[2]; [15],99.872%
same,Related substances RRT 0.08,[2]; [16],0.013%
same,Related substances RRT 0.30,[2]; [16],0.028%
same,Related substances RRT 0.40,[2]; [16],0.007%
same,Related substances RRT 0.55,[2]; [16],0.024%
same,Related substances RRT 0.92,[2]; [16],0.034%
same,Related substances RRT 1.00,[2]; [16],99.884%
same,Related substances RRT 0.08,[2]; [17],0.013%
same,Related substances RRT 0.30,[2]; [17],0.028%
same,Related substances RRT 0.40,[2]; [17],0.008%
same,Related substances RRT 0.55,[2]; [17],0.032%
same,Related substances RRT 0.92,[2]; [17],0.045%
same,Related substances RRT 1.00,[2]; [17],99.862%
same,change in related substances,"[2]; methanol-dichloromethane (1:3), 30 min and 24 h",no significant change in related substances
same,Solubility,[3]; 0.5 h,<0.09 µg/mL
same,Solubility,[3]; 2 h,<0.09 µg/mL
same,Solubility,[3]; 4 h,<0.09 µg/mL
same,solubility at 0.5 h,"[3]; phosphate buffer, 37 °C, pH 6.8, aqueous buffer, thermodynamic from solid, pH 6.8 phosphate buffer solution, 0.5 h",< 0.09 µg/mL
same,solubility at 2 h,"[3]; phosphate buffer, 37 °C, pH 6.8, aqueous buffer, thermodynamic from solid, pH 6.8 phosphate buffer solution, 2 h",< 0.09 µg/mL
same,solubility at 4 h,"[3]; phosphate buffer, 37 °C, pH 6.8, aqueous buffer, thermodynamic from solid, pH 6.8 phosphate buffer solution, 4 h",< 0.09 µg/mL
same,Related substances: CTF-aniline,[4]; 0 day,Not detected
same,Related substances: Maximum single impurity,[4]; 0 day,0.03%
same,Related substances: Total impurity,[4]; 0 day,0.09%
same,Related substances: CTF-aniline,[4]; 10 days,Not detected
same,Related substances: Maximum single impurity,[4]; 10 days,0.04%
same,Related substances: Total impurity,[4]; 10 days,0.10%
same,Related substances: CTF-aniline,[4]; 30 days,Not detected
same,Related substances: Maximum single impurity,[4]; 30 days,0.05%
same,Related substances: Total impurity,[4]; 30 days,0.10%
same,administered dose excreted through feces,[5],77%
same,prototype drug excreted through feces,[5],above 51%
same,blood concentration of patients with serious adverse reactions,[6],"more than 10,000 ng/ml"
same,incidence of diarrhea,[6],76.5%
same,incidence of fatigue,[6],55.32%
same,incidence of hand-foot syndrome,[6],68.99%
same,Solubility,[7]; pH1,0.0034 mg/mL
same,Solubility,[7]; pH4.5,0.00013 mg/mL
